Assay results taken from ChEMBL document CHEMBL1136310, “Pyrazino[1,2-a]indole-1,4-diones, simple analogues of gliotoxin, as selective inhibitors of geranylgeranyltransferase I” (Bioorg Med Chem Lett, 2003).

Columns and labels:
[1] = molecular target: Protein farnesyltransferase (Homo sapiens, UniProt P49354+P49356); test: Inhibition of [3H]FPP incorporation into recombinant human Ha-Ras-CVLS by farnesyl transferase; format: protein-complex assay
[2] = molecular target: Geranylgeranyl transferase type I (Homo sapiens, UniProt P49354+P53609); test: Inhibition of [3H]-GGPP incorporation into recombinant human Ha-Ras-CVLL by Geranylgeranyl transferase type I; format: protein-complex assay

In the case of `CN1C(=O)c2cc3ccccc3n2C(=O)C1SSCc1ccccc1` (stereo unspecified), the IC50 [1] is reported as > 100 µM and the IC50 [2] is reported as > 100 µM.
For `CN1C(=O)[C@]23CC4=CC=C[C@H](O)[C@H]4N2C(=O)[C@@]1(CO)SS3` [GLIOTOXIN], the IC50 [1] was 80 µM and the IC50 [2] was 17 µM.
In the case of `COc1cccc2c1cc1n2C(=O)CN(C)C1=O`, the IC50 [1] is reported as > 100 µM and the IC50 [2] is reported as > 100 µM.
`CN1CC(=O)N2c3ccccc3CC2C1=O` (stereo unspecified) was tested, and the IC50 [1] was > 100 µM and the IC50 [2] was > 100 µM.
For `COc1cccc2c1cc1n2C(=O)C(SSCc2ccccc2)N(C)C1=O` (stereo unspecified), the IC50 [1] was > 100 µM and the IC50 [2] was > 100 µM.
With `CN1CC(=O)n2c(cc3ccccc32)C1=O` the IC50 [1] was > 100 µM and the IC50 [2] was > 100 µM.
`COc1cccc2c1CC1C(=O)N(C)CC(=O)N21` (stereo unspecified) was tested, and the IC50 [1] was > 100 µM and the IC50 [2] was > 100 µM.
Work on `COc1cccc2c1cc1n2C(=O)C(SC(C)=O)N(C)C1=O` (stereo unspecified) yielded an IC50 [1] of 748 µM and an IC50 [2] of 90.3 µM.
